Measurements reported in patent US20100267561A1, “HERBICIDAL PYRIDAZINONE DERIVATIVES” (priority 2007, published 2010).

Legend:
Test in all cases: Test B pre-/postemergence plant response
Type in all cases: in vivo
[1] = system: green foxtail (Setaria viridis); conditions: for Foxtail, Green plant response rating: 8 g ai/ha
Method in brief: (§1)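 Preemergence and postemergence (plants 2-18 cm, 1- to 4-leaf stage) applications used test chemicals in a non-phytotoxic solvent with surfactant. Plants were held in a greenhouse 13 to 15 days, then rated visually against controls on a 0-100 scale (0 no effect, 100 complete control).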

[2] = system: surinam grass (Brachiaria decumbens); conditions: for Surinam Grass plant response rating: 8 g ai/ha
Method in brief: as §1

[3] = system: kochia (Kochia scoparia); conditions: for Kochia plant response rating: 8 g ai/ha
Method in brief: as §1

[4] = system: eastern black (E.B.) nightshade (Solanum ptycanthum); conditions: Preemergence
Method in brief: as §1

[5] = system: common ragweed (Ambrosia elation); conditions: for Ragweed plant response rating: 8 g ai/ha
Method in brief: as §1

[6] = system: corn (Zea mays); conditions: for Corn plant response rating: 8 g ai/ha
Method in brief: as §1

[7] = system: wild oat (Avena fatua); conditions: for Oat, Wild plant response rating: 8 g ai/ha
Method in brief: as §1

[8] = system: Russian thistle (Salsola iberica); conditions: Preemergence
Method in brief: as §1

[9] = system: morningglory (Ipomoea coccinea); conditions: for Morningglory plant response rating: 8 g ai/ha
Method in brief: as §1

[10] = system: lambsquarters (Chenopodium album); conditions: for Lambsquarters plant response rating: 8 g ai/ha
Method in brief: as §1

[11] = system: cocklebur (Xanthium strumarium); conditions: for Cocklebur plant response rating: 8 g ai/ha
Method in brief: as §1

[12] = system: Italian ryegrass (Lolium multiflorum); conditions: for Ryegrass, Italian plant response rating: 8 g ai/ha
Method in brief: as §1

[13] = system: catchweed bedstraw (Galium aparine); conditions: Preemergence
Method in brief: as §1

[14] = system: yellow nutsedge (Cyperus esculentus); conditions: for Nutsedge, Yellow plant response rating: 8 g ai/ha
Method in brief: as §1

[15] = Postemergence, 16 g ai/ha, scale 0 to 100
[16] = Postemergence, 31 g ai/ha, scale 0 to 100, 0 no effect, 100 complete control
[17] = Postemergence, 62 g ai/ha, scale 0 to 100
[18] = Preemergence, 16 g ai/ha, scale 0 to 100 (0 no effect, 100 complete control)
[19] = Preemergence, 31 g ai/ha, 0 to 100 scale, 0 no effect, 100 complete control
[20] = Preemergence, 62 g ai/ha, scale 0 to 100
[21] = 16 g ai/ha, scale 0 to 100 (0 no effect, 100 complete control)
[22] = 31 g ai/ha, 0 to 100 scale, 0 no effect, 100 complete control

## CCc1cc(-c2ccc(F)cc2)nn1-c1c(O)cnn(C)c1=O [Compound 25]
[1]; postemergence, 0-100 scale
  Foxtail, Green plant response rating: 55
[1]; [15]
  Plant response rating, Foxtail, Green: 70
[1]; [16]
  Plant response rating, Foxtail, Green: 80
[1]; [17]
  Plant response rating, Foxtail, Green: 98
[1]; [18]
  Plant response rating, Foxtail, Green: 98
[1]; [19]
  Plant response rating, Foxtail, Green: 98
[1]; [20]
  Plant response rating, Foxtail, Green: 98
[1]; Preemergence, scale 0 to 100
  Foxtail, Green plant response rating: 50
[2]; postemergence, 0-100 scale
  Surinam Grass plant response rating: 50
[2]; [15]
  Plant response rating, Surinam Grass: 60
[2]; [16]
  Plant response rating, Surinam Grass: 95
[2]; [17]
  Plant response rating, Surinam Grass: 100
[2]; [18]
  Plant response rating, Surinam Grass: 85
[2]; [19]
  Plant response rating, Surinam Grass: 85
[2]; [20]
  Plant response rating, Surinam Grass: 100
[2]; Preemergence, scale 0 to 100
  Surinam Grass plant response rating: 50
[3]; postemergence, 0-100 scale
  Kochia plant response rating: 0
[3]; [15]
  Plant response rating, Kochia: 0
[3]; [16]
  Plant response rating, Kochia: 0
[3]; [17]
  Plant response rating, Kochia: 0
[3]; [18]
  Plant response rating, Kochia: 0
[3]; [20]
  Plant response rating, Kochia: 50
[3]; Preemergence, scale 0 to 100
  Kochia plant response rating: 0
[4]; [21]
  Plant response rating, Nightshade, E. B.: 0
[4]; [22]
  Plant response rating, Nightshade, E. B.: 0
[4]; 62 g ai/ha, scale 0 to 100
  Plant response rating, Nightshade, E. B.: 0
[4]; 8 g ai/ha, scale 0 to 100
  Nightshade, E. B. plant response rating: 0
[5]; postemergence, 0-100 scale
  Ragweed plant response rating: 0
[5]; [15]
  Plant response rating, Ragweed: 0
[5]; [16]
  Plant response rating, Ragweed: 0
[5]; [17]
  Plant response rating, Ragweed: 0
[5]; [18]
  Plant response rating, Ragweed: 0
[5]; [19]
  Plant response rating, Ragweed: 0
[5]; [20]
  Plant response rating, Ragweed: 0
[5]; Preemergence, scale 0 to 100
  Ragweed plant response rating: 0
[6]; postemergence, 0-100 scale
  Corn plant response rating: 0
[6]; [15]
  Plant response rating, Corn: 50
[6]; [16]
  Plant response rating, Corn: 95
[6]; [18]
  Plant response rating, Corn: 5
[6]; [19]
  Plant response rating, Corn: 50
[6]; [20]
  Plant response rating, Corn: 75
[6]; Preemergence, scale 0 to 100
  Corn plant response rating: 0
[7]; postemergence, 0-100 scale
  Oat, Wild plant response rating: 25
[7]; [15]
  Plant response rating, Oat, Wild: 55
[7]; [16]
  Plant response rating, Oat, Wild: 70
[7]; [17]
  Plant response rating, Oat, Wild: 95
[7]; [18]
  Plant response rating, Oat, Wild: 0
[7]; [19]
  Plant response rating, Oat, Wild: 0
[7]; [20]
  Plant response rating, Oat, Wild: 60
[7]; Preemergence, scale 0 to 100
  Oat, Wild plant response rating: 0
[8]; [21]
  Plant response rating, Russian Thistle: 0
[8]; [22]
  Plant response rating, Russian Thistle: 0
[8]; 62 g ai/ha, scale 0 to 100
  Plant response rating, Russian Thistle: 0
[8]; 8 g ai/ha, scale 0 to 100
  Russian Thistle plant response rating: 0
[9]; postemergence, 0-100 scale
  Morningglory plant response rating: 0
[9]; [15]
  Plant response rating, Morningglory: 0
[9]; [16]
  Plant response rating, Morningglory: 0
[9]; [17]
  Plant response rating, Morningglory: 20
[9]; [18]
  Plant response rating, Morningglory: 0
[9]; [19]
  Plant response rating, Morningglory: 0
[9]; [20]
  Plant response rating, Morningglory: 0
[9]; Preemergence, scale 0 to 100
  Morningglory plant response rating: 0
[10]; postemergence, 0-100 scale
  Lambsquarters plant response rating: 0
[10]; [15]
  Plant response rating, Lambsquarters: 0
[10]; [16]
  Plant response rating, Lambsquarters: 0
[10]; [17]
  Plant response rating, Lambsquarters: 10
[10]; [18]
  Plant response rating, Lambsquarters: 0
[10]; [19]
  Plant response rating, Lambsquarters: 0
[10]; [20]
  Plant response rating, Lambsquarters: 40
[10]; Preemergence, scale 0 to 100
  Lambsquarters plant response rating: 0
[11]; postemergence, 0-100 scale
  Cocklebur plant response rating: 0
[11]; [15]
  Plant response rating, Cocklebur: 0
[11]; [16]
  Plant response rating, Cocklebur: 0
[11]; [17]
  Plant response rating, Cocklebur: 0
[11]; [18]
  Plant response rating, Cocklebur: 0
[11]; [19]
  Plant response rating, Cocklebur: 0
[11]; [20]
  Plant response rating, Cocklebur: 0
[11]; Preemergence, scale 0 to 100
  Cocklebur plant response rating: 0
[12]; postemergence, 0-100 scale
  Ryegrass, Italian plant response rating: 60
[12]; [15]
  Plant response rating, Ryegrass, Italian: 80
[12]; [16]
  Plant response rating, Ryegrass, Italian: 85
[12]; [17]
  Plant response rating, Ryegrass, Italian: 95
[12]; [18]
  Plant response rating, Ryegrass, Italian: 50
[12]; [19]
  Plant response rating, Ryegrass, Italian: 90
[12]; [20]
  Plant response rating, Ryegrass, Italian: 100
[12]; Preemergence, scale 0 to 100
  Ryegrass, Italian plant response rating: 50
[13]; [21]
  Plant response rating, Galium: 0
[13]; [22]
  Plant response rating, Galium: 0
[13]; 62 g ai/ha, scale 0 to 100
  Plant response rating, Galium: 0
[13]; 8 g ai/ha, scale 0 to 100
  Galium plant response rating: 0
[14]; postemergence, 0-100 scale
  Nutsedge, Yellow plant response rating: 0
[14]; [15]
  Plant response rating, Nutsedge, Yellow: 0
[14]; [16]
  Plant response rating, Nutsedge, Yellow: 0
[14]; [17]
  Plant response rating, Nutsedge, Yellow: 0
[14]; [18]
  Plant response rating, Nutsedge, Yellow: 0
[14]; [19]
  Plant response rating, Nutsedge, Yellow: 0
[14]; [20]
  Plant response rating, Nutsedge, Yellow: 0
[14]; Preemergence, scale 0 to 100
  Nutsedge, Yellow plant response rating: 0
